According to article PMC8329300, “X-ray crystallography reveals molecular recognition mechanism for sugar binding in a melibiose transporter MelB” (Communications Biology, 2021):

Legend:
[1] = target: T1, MelBSt D59A (Salmonella typhimurium, UniProt P30878, D59A); assay: [3H]Melibiose transport time course with DW2 intact cells expressing MelBSt D59A; assay type: cell-based; settings: 0.4 mM [3H]melibiose
T1 construct: Cys scanning mutagenesis for the full-length MelBSt; expressed in transfected cells; host or cells: E. coli DW2 (melA+, melB-, lacZ-Y-)
T1 sequence (P30878 whole entry D59A): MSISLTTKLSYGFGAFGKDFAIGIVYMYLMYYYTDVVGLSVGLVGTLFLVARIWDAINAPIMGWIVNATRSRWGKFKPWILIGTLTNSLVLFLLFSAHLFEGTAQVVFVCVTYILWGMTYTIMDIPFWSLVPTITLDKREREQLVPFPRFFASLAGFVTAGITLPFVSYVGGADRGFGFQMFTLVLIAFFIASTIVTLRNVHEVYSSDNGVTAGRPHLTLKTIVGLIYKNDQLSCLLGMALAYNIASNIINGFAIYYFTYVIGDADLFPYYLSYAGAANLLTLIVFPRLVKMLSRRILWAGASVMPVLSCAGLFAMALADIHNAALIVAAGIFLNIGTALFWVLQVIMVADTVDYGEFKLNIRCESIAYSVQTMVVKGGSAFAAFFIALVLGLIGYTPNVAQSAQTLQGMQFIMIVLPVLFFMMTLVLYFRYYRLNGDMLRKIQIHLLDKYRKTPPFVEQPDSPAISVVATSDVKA
Experimental: Fig. 1 Functional characterizations. a [^3H] Melibiose transport time course with intact cells. E. coli DW2 strain (melB^−, lacZ^−Y^−) expressed with the WT, D59C, or D59A MelBSt mutants were subjected to [^3H]melibiose active transport assay at 0.4 mM and 10 mCi/mmol in the presence of 20 mM or 100 mM NaCl or LiCl by a fast filtration method. Inset, melibiose fermentation assay. Transformants with DW2 strain were plated on MacConkey agar plates containing 30 mM melibiose as the sole carbohydrate source and pH sensor neutral red, and incubated at 37 °C for 16–18 h before imaging. Number of tests = 3, from different batch of cells or duplicate measurements from same batch of sample. b Ligand binding by Trp→dansyl galactoside (D^2G) FRET assay. Purified proteins at 1 μM concentration in 20 mM Tris-HCl, pH 7.5, 100 mM CholCl, 10% glycerol, and 0.03% UDM were subjected to steady-state fluorescence measurements as described in Methods. On the time-trace, 1.8 μL of 1 mM D^2G at 10 μM was added into 180 μL of protein solutions at 1-min point, followed by supplying 10 μL of 5 mM DDMB or 5 mM α-NPG to displace the bound D^2G. For testing Na^+ or Li^+ binding, they are added into the solution before displacement with the second sugar. The structure of DDMB or α-NPG is shown in a chair form, and the carbon positions are labeled. Glycosidic bonds are indicated by arrows. Both are α-galactosides containing a substituent at the anomeric carbon-1. The data were from duplicate measurements.
The overexpression of MelBSt was carried out in the E. coli DW2 strain (melA^+, melB^−, and lacZ^−Y^−) from a constitutive expression plasmid pK95ΔAH/MelBSt/CHis10[9],[28],[33]. The D59C or D59A mutant with Cys or Ala at the position 59, respectively, was constructed previously[9] or in this study by QuikChange Site-Directed Mutagenesis kit and confirmed by DNA sequencing analysis. E. coli DW2 cells containing a given plasmid were grown in Luria-Bertani (LB) broth (5 g yeast extract and 10 g tryptone per liter with 171 mM NaCl) with 100 mg/L of ampicillin in a 37 °C shaker. The overnight cultures were diluted by 5% with LB broth supplemented with 0.5% glycerol and 100 mg/L of ampicillin, and constitutive overexpression was obtained by shaking at 30 °C for another 5 h.
E. coli DW2 cells expressing MelBSt were washed with 100 mM KPi, pH 7.5, to remove Na^+ contamination as described previously. The cell pellets were resuspended with the assay buffer (100 mM KPi, pH 7.5, 10 mM MgSO4) and adjusted to A420 of 10 (∼0.7 mg protein/ml). Using a fast filtration, transport time course at 0.4 mM melibiose (at specific activity of 10 mCi/mmol) was carried out in the absence or presence of NaCl or LiCl at 20 mM or 100 mM, respectively, and intracellular melibiose was determined as described previously.

[2] = target: T2, WT MelBSt (Salmonella typhimurium, UniProt P30878); assay: biochemical; assay type: binding; settings: for Kd: Kd of substrate binding, α-NPG, ITC 25 °C
T2 construct: Cys scanning mutagenesis for the full-length MelBSt; His10 (C); made in house; host or cells: E. coli DW2
T2 sequence (P30878 whole entry): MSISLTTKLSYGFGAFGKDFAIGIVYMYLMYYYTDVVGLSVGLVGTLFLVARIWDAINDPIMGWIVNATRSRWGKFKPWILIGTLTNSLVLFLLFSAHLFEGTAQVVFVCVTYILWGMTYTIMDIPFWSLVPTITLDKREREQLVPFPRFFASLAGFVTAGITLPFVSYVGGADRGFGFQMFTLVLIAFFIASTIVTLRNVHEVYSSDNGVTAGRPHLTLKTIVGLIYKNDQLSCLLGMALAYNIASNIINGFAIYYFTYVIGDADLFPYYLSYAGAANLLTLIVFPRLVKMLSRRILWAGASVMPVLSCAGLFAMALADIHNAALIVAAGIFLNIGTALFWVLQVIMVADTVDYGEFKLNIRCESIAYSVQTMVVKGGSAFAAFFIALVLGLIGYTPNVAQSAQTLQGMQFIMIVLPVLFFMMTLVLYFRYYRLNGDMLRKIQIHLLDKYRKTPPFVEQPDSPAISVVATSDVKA
Experimental: All ITC ligand-binding assays were performed with the TA Instruments (Nano-ITC device) at 25 °C. In a typical experiment, the titrand (MelBSt) in the ITC sample cell was titrated with the specified titrant (placed in the Syringe) by an incremental injection of 2-µL aliquots at an interval of 300 s at a constant stirring rate of 250 r.p.m. All samples were degassed using a TA Instruments Degassing Station (model 6326) for 15 min prior to the titration. Data processing was performed with the NanoAnalyze (version 3.6.0 software) provided with the ITC equipment. The normalized heat changes were subtracted from the heat of dilution elicited by last few injections, where no further binding occurred; the corrected heat changes were plotted against the molar ratio of titrant versus titrand. The values for association constant (Ka) value were determined by fitting the data with a one-site independent-binding model. At most cases, the binding stoichiometry (N) number was fixed to 1 since it is a known parameter, which can restrain the data fitting and achieve more accurate results. The dissociation constant Kd = 1/Ka.
Supplementary Figure 1. ITC measurements. ITC measurements were performed at 25 °C as described in Methods. (a) Binding thermography. For all tests, ligands and proteins are buffer- […]
(1 picture or pasted object on this page, not shown here) […]
matched. For melibiose binding measurements, a solution of 80 mM or 10 mM in the absence or presence of NaCl at 100 mM, was injected into the ITC sample cell containing the WT MelBSt at 80 μM without or with 100 mM NaCl, respectively. With the D59C mutant, […] was used. For α-NPG binding measurements, 0.5 mM or 0.4 mM solution was used to titrate the WT or D59C mutant at 50 μM in the absence or presence or 100 mM NaCl, respectively. For the Na+ or Li+ binding measurements, 5 mM or 2 mM solution was used to titrate WT MelBSt at 80 μM without or with 50 mM melibiose, respectively; 40 mM solutions was used to titrate the D59C mutant. (b) binding isotherm. Curve fit was carried out with a one-site independent-binding model included in the NanoAnalyze software (version 3.6.0).

OC[C@H]1O[C@H](OCC2O[C@@H](O)[C@H](O)[C@@H](O)[C@@H]2O)[C@H](O)[C@@H](O)[C@H]1O (some centres unmarked) [Melibiose]
Melibiose transport ([1]; H+, Time 0.17): 9.09 | Melibiose transport ([1]; H+, Time 0.50): 8.49 | Melibiose transport ([1]; H+, Time 1.00): 2.84 | Melibiose transport ([1]; H+, Time 2.00): 1.86 | Melibiose transport ([1]; H+, Time 5.00): 1.70 | Melibiose transport ([1]; H+, Time 10.00): 1.53 | Melibiose transport ([1]; H+, Time 30.00): 1.58 | Melibiose transport ([1]; Li+, 20 mM, Time 0.17): 0.82 | Melibiose transport ([1]; Li+, 20 mM, Time 0.50): 1.81 | Melibiose transport ([1]; Li+, 20 mM, Time 1.00): 0.66 | Melibiose transport ([1]; Li+, 20 mM, Time 2.00): 4.29 | Melibiose transport ([1]; Li+, 20 mM, Time 5.00): 3.59 | Melibiose transport ([1]; Li+, 20 mM, Time 10.00): 1.72 | Melibiose transport ([1]; Li+, 20 mM, Time 30.00): 4.17 | Melibiose transport ([1]; Na+, 20 mM, Time 0.17): 4.09 | Melibiose transport ([1]; Na+, 20 mM, Time 0.50): 2.70 | Melibiose transport ([1]; Na+, 20 mM, Time 1.00): 2.54 | Melibiose transport ([1]; Na+, 20 mM, Time 2.00): 5.43 | Melibiose transport ([1]; Na+, 20 mM, Time 5.00): 1.63 | Melibiose transport ([1]; Na+, 20 mM, Time 10.00): 1.16

O=[N+]([O-])c1ccc(OC2OC(CO)C(O)C(O)C2O)cc1 [α-NPG, 4-nitrophenyl-α-D-galactopyranoside]
Kd ([2]; Apo): 43.2 ± 0.62 µM | Kd ([2]; Na+ (100 mM)): 25.7 ± 4.42 µM | greater affinity compared to the native substrate melibiose ([2]; from Table 1): 100 fold
